Positions of bridges follow the written chain, without caps; N, C: chain ends. Non-standard residues stand in square brackets, D forms with d. Residues, ends and D or L forms follow the SMILES beside them. Cha = N[C@@H](CC1CCCCC1)C(=O)O; Orn = NCCC[C@H](N)C(=O)O; Dab = NCC[C@H](N)C(=O)O; Dap = NC[C@H](N)C(=O)O; Mpa = O=C(O)CCS
Tests used:
Rattus norvegicus [1] = species on record: Rattus norvegicus; assay: Antidiuretic activity in rat; type: functional, Urine
Rattus norvegicus [2] = species on record: Rattus norvegicus; assay: Vasopressor activity in rat; type: functional
Oxytocin receptor [3] = target: T1, Oxytocin receptor (Homo sapiens, UniProt P30559); assay: Activity at OT receptor assessed as oxytocic activity in absence of magnesium; type: functional; settings: read-out: pA2 (converted)
T1 sequence (P30559 whole entry): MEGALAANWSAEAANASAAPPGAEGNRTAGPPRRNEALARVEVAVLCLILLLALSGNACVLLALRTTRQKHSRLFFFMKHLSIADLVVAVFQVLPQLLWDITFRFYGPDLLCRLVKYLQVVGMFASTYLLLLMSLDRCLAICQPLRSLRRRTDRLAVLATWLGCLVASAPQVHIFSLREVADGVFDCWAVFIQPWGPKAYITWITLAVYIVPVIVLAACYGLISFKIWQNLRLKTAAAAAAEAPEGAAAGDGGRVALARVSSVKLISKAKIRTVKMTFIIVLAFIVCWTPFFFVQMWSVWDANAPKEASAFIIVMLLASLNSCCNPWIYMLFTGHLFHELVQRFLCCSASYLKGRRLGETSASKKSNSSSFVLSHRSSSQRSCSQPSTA

Vasopressin V2 receptor = Vasopressin V2 receptor (Rattus norvegicus, UniProt Q00788); assay: Displacement of [3H]AVP from vasopressin V2 receptor in rat kidney membranes; type: cell membranes, Membrane
Sequence of Vasopressin V2 receptor (Q00788 whole entry): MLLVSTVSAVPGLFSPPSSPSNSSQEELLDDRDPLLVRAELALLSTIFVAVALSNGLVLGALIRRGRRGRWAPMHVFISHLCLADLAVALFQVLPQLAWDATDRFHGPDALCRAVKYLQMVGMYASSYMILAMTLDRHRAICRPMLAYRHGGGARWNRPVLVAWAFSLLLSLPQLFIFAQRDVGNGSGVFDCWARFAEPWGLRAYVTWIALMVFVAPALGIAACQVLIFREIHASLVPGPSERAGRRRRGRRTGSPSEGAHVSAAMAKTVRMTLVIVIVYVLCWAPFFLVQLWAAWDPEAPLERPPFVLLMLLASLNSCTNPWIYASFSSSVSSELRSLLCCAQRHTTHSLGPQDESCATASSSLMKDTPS

Vasopressin V1a receptor = Vasopressin V1a receptor (Rattus norvegicus, UniProt P30560); assay: Displacement of [3H]AVP from vasopressin V1a receptor in rat liver membrane; type: cell membranes
Sequence of Vasopressin V1a receptor (P30560 whole entry): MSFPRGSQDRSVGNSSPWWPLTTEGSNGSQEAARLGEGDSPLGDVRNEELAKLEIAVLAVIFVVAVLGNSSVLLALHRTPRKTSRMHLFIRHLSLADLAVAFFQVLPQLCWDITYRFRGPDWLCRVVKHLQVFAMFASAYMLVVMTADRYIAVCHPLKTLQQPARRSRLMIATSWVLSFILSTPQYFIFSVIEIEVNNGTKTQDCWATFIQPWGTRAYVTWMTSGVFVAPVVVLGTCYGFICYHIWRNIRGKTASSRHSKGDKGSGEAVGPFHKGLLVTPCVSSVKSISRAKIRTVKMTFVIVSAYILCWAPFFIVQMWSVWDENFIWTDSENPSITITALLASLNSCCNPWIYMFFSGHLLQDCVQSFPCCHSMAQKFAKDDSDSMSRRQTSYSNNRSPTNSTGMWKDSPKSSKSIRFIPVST

Oxytocin receptor [4] = target: T2, Oxytocin receptor (Rattus norvegicus, UniProt P70536); assay: Displacement of [3H]AVP from rat OT receptor expressed in CHO cells; type: cell-based
T2 sequence (P70536 whole entry): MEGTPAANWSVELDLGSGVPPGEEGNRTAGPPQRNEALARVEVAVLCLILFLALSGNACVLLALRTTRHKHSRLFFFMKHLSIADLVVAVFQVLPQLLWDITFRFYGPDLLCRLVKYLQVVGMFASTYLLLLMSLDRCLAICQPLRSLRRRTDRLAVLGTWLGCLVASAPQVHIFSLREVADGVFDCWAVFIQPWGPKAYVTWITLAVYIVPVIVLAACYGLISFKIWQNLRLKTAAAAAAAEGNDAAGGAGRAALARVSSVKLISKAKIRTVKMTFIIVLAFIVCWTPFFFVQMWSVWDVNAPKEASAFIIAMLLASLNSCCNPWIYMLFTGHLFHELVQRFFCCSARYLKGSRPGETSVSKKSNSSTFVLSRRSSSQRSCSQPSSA

[5] = target: Vasopressin V2 receptor (Rattus norvegicus) (UniProt Q00788); assay: Activity at vasopressin V2 receptor in rat kidney membranes assessed as adenylate cyclase activity; type: functional, cell membranes; settings: Membrane, filed as agonist
Sequence of Vasopressin V2 receptor (Rattus norvegicus) (Q00788 whole entry): as the sequence (Q00788 whole entry) above

[6] = target: Vasopressin V2 receptor (Rattus norvegicus) (UniProt Q00788); assay: Activity at vasopressin V2 receptor in rat kidney membranes assessed as maximal adenylate cyclase activity relative to AVP; type: functional, cell membranes; settings: Membrane, filed as agonist
[7] = target: T3, Vasopressin V1b receptor (Rattus norvegicus) (UniProt P48974); settings: AtT20, filed as agonist
T3 sequence (whole entry): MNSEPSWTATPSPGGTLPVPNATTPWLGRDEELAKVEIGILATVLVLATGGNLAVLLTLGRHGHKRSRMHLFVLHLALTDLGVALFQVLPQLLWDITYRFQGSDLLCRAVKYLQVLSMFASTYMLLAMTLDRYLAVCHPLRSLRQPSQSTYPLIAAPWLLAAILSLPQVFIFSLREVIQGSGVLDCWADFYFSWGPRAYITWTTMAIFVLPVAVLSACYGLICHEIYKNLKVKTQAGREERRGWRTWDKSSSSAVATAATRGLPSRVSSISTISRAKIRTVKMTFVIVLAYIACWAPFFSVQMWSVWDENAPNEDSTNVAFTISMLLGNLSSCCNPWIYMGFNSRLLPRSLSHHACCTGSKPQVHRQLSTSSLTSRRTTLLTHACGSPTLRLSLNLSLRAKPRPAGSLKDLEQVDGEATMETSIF

Kb (Oxytocin receptor [3])	Ki (Vasopressin V2 receptor)	Ki (Vasopressin V1a receptor)	Ki (Oxytocin receptor [4])	Activity [6]	Compound	Activity (Rattus norvegicus [1])	Activity (Rattus norvegicus [2])	Kact [5]	Kact [7]
331 nM (agonist)	600 nM (antagonist)	9.1 µM (antagonist)	590 nM (antagonist)		NCCCC[C@H](NC(=O)[C@@H]1CCCN1C(=O)[C@@H]1CSSCCC(=O)N[C@@H](Cc2ccc(O)cc2)C(=O)N[C@@H](Cc2ccccc2)C(=O)N[C@@H](CC2CCCCC2)C(=O)N[C@@H](CC(N)=O)C(=O)N1)C(=O)NCC(N)=O ([Mpa]YF[Cha]NCPKG-NH2; disulfide 1-6)	0.82 U/mg	0.043 U/mg		
282 nM (agonist)	450 nM (antagonist)	2.9 µM (antagonist)	550 nM (antagonist)		NCCC[C@H](NC(=O)[C@@H]1CCCN1C(=O)[C@@H]1CSSCCC(=O)N[C@@H](Cc2ccc(O)cc2)C(=O)N[C@@H](Cc2ccccc2)C(=O)N[C@@H](CC2CCCCC2)C(=O)N[C@@H](CC(N)=O)C(=O)N1)C(=O)NCC(N)=O ([Mpa]YF[Cha]NCP[Orn]G-NH2; disulfide 1-6)	1 U/mg	0.22 U/mg		

Second part, the compound before the results:

Compound	Kb (Oxytocin receptor [3])	Ki (Vasopressin V2 receptor)	Ki (Vasopressin V1a receptor)	Ki (Oxytocin receptor [4])	Activity [6]	Activity (Rattus norvegicus [1])	Activity (Rattus norvegicus [2])	Kact [5]	Kact [7]
NCC[C@H](NC(=O)[C@@H]1CCCN1C(=O)[C@@H]1CSSCCC(=O)N[C@@H](Cc2ccc(O)cc2)C(=O)N[C@@H](Cc2ccccc2)C(=O)N[C@@H](CC2CCCCC2)C(=O)N[C@@H](CC(N)=O)C(=O)N1)C(=O)NCC(N)=O ([Mpa]YF[Cha]NCP[Dab]G-NH2; disulfide 1-6)	447 nM (agonist)	450 nM (antagonist)	4.4 µM (antagonist)	430 nM (antagonist)	75%	1 U/mg	0.18 U/mg	174 nM	
NC[C@H](NC(=O)[C@@H]1CCCN1C(=O)[C@@H]1CSSCCC(=O)N[C@@H](Cc2ccc(O)cc2)C(=O)N[C@@H](Cc2ccccc2)C(=O)N[C@@H](CC2CCCCC2)C(=O)N[C@@H](CC(N)=O)C(=O)N1)C(=O)NCC(N)=O ([Mpa]YF[Cha]NCP[Dap]G-NH2; disulfide 1-6)	479 nM (agonist)	1050 nM (antagonist)	1.8 µM (antagonist)	1200 nM (antagonist)		0.3 U/mg	0.002 U/mg		
N=C(N)NCCC[C@H](NC(=O)[C@@H]1CCCN1C(=O)[C@@H]1CSSC[C@H](N)C(=O)N[C@@H](Cc2ccc(O)cc2)C(=O)N[C@@H](Cc2ccccc2)C(=O)N[C@@H](CCC(N)=O)C(=O)N[C@@H](CC(N)=O)C(=O)N1)C(=O)NCC(N)=O [VASOPRESSIN]						323 U/mg		0.32 nM	2.3 nM

Reference: ChEMBL document CHEMBL1141418 (J Med Chem, 2007)
